Test results published in patent publication EP3072514A1, “Novel oral anticoagulants (NOACs) for preventing development and aggravation of atrial fibrillation” (Université Pierre et Marie Curie - Paris 6 (UPMC), priority 2015, dated 2016).

Legend:
α-MHC = assay: mRNA expression by real-time qPCR in atria and ventricle of I/R rats; assay type: in vivo, Male OFA Sprague-dawley rats
Source text: (§1) • Figure 1 is a combination of two graphs showing left atrium (LA) area after one month of treatment with DTI Dabigatran (A) or S35792 (B). Vehicle (V) is 60% H2O/40% PEG 300 for dabigatran and saline for S35972. Treatment of rats started just after thoracotomy without (Sham) or with occlusion of left coronary artery followed by reperfusion (I/R). […] Vehicle (V) is 60% H2O/40% PEG 300 for dabigatran and saline for S35972. Treatment of rats started just after thoracotomy without (Sham) or with occlusion of left coronary artery followed by reperfusion (I/R). Results are presented as mean +/- S.E.M. * P<0.05; ** P<0.001, *** P<0.001 vs Sham; #P<0.05 vs untreated I/R. • Figure 3 is a combination of two graphs showing thrombin time (TT), which reflects anticoagulant activity, and plasma concentrations of Dabigatran (A) and S35792 (B) in rats after throracotomy with occlusion of left coronary artery followed by reperfusion (I/R). Vehicle (V) is 60% H2O/40% PEG 300 for dabigatran and saline for S35972. Tests were carried out on blood collected by cardiac puncture at sacrifice (i.e. for Dabigatran, 90 minutes after last oral administration). DTI plasma levels are quantified using LC-MS/MS. TT are expressed as mean +/- S.E.M with reference to the mean value of sham animals that underwent thoracotomy only. *** P<0.001 vs untreated I/R. • Figure 4 is a combination of three graphs showing left atrium (LA) area (A) and diameter (B) and left ventricle end-diastolic (LVED) diameter (C) after two months of treatment with S35972. Treatment of rats started just after thoracotomy without (Sham) or with occlusion of left coronary artery followed by reperfusion (I/R). LA area was measured by bidimensional echocardiography. LA and LVED diameters were measured in time-motion mode. Results are presented as mean +/- S.E.M. *P<0.05, **P<0.01 and *** P<0.001 vs Sham; ^#P<0.05 ^###P<0.001 vs untreated I/R. • Figure 5 is a graph showing the impact of S35972 administration during two months on the duration of an episode of AF in rats undergone thoracotomy without (Sham) or with occlusion of left coronary artery followed by reperfusion (I/R). AF duration is measured as the time between the end of the electric stimulation and the return to sinusoidal rhythm. […] Rats undergone thoracotomy without (Sham) or with occlusion of left coronary artery followed by reperfusion (I/R). Expression of mRNA was measured with real-time qPCR. […] Expression of mRNA was measured with real-time qPCR. […] Expression of mRNA was measured with real-time qPCR. […] LA area was measured by bidimensional echocardiography. LVED and LA diameters were measured in time-motion mode. […] AF duration is measured as the time between the end of the electric stimulation and return to sinusoidal rhythm. […]

β-MHC = assay: as above; assay type: in vivo, Male OFA Sprague-dawley rats
Source text: as §1

[1] = Plasma concentration by LC-MS/MS in I/R rats; parameters: species or system Male OFA Sprague-dawley rats; details: rat, in vivo, sc
Source text: • Figure 1 is a combination of two graphs showing left atrium (LA) area after one month of treatment with DTI Dabigatran (A) or S35792 (B). Vehicle (V) is 60% H2O/40% PEG 300 for dabigatran and saline for S35972. Treatment of rats started just after thoracotomy without (Sham) or with occlusion of left coronary artery followed by reperfusion (I/R). Results are presented as mean +/- S.E.M, *P<0.05, **P<0.01 and *** P<0.001 vs Sham; ^##P<0.01 and ^###P<0.001 vs untreated I/R. • Figure 2 is a combination of graphs showing left ventricular end-diastolic (LVED) diameter and fractional shortening (FS) after one month of treatment with Dabigatran (A) or S35792 (B). Vehicle (V) is 60% H2O/40% PEG 300 for dabigatran and saline for S35972. Treatment of rats started just after thoracotomy without (Sham) or with occlusion of left coronary artery followed by reperfusion (I/R). Results are presented as mean +/- S.E.M. * P<0.05; ** P<0.001, *** P<0.001 vs Sham; #P<0.05 vs untreated I/R. • Figure 3 is a combination of two graphs showing thrombin time (TT), which reflects anticoagulant activity, and plasma concentrations of Dabigatran (A) and S35792 (B) in rats after throracotomy with occlusion of left coronary artery followed by reperfusion (I/R). Vehicle (V) is 60% H2O/40% PEG 300 for dabigatran and saline for S35972. […] DTI plasma levels are quantified using LC-MS/MS. TT are expressed as mean +/- S.E.M with reference to the mean value of sham animals that underwent thoracotomy only. *** P<0.001 vs untreated I/R. • Figure 4 is a combination of three graphs showing left atrium (LA) area (A) and diameter (B) and left ventricle end-diastolic (LVED) diameter (C) after two months of treatment with S35972. […] LA area was measured by bidimensional echocardiography. LA and LVED diameters were measured in time-motion mode. […] AF duration is measured as the time between the end of the electric stimulation and the return to sinusoidal rhythm. […] Expression of mRNA was measured with real-time qPCR. […] Expression of mRNA was measured with real-time qPCR. […]

BNP = assay: mRNA expression by real-time qPCR in atria and ventricle of I/R rats; assay type: in vivo, Male OFA Sprague-dawley rats; details: 6 mg/kg/day, 2 months
Source text: (§2) • Figure 1 is a combination of two graphs showing left atrium (LA) area after one month of treatment with DTI Dabigatran (A) or S35792 (B). Vehicle (V) is 60% H2O/40% PEG 300 for dabigatran and saline for S35972. Treatment of rats started just after thoracotomy without (Sham) or with occlusion of left coronary artery followed by reperfusion (I/R). Results are presented as mean +/- S.E.M, *P<0.05, **P<0.01 and *** P<0.001 vs Sham; ^##P<0.01 and ^###P<0.001 vs untreated I/R. • Figure 2 is a combination of graphs showing left ventricular end-diastolic (LVED) diameter and fractional shortening (FS) after one month of treatment with Dabigatran (A) or S35792 (B). Vehicle (V) is 60% H2O/40% PEG 300 for dabigatran and saline for S35972. Treatment of rats started just after thoracotomy without (Sham) or with occlusion of left coronary artery followed by reperfusion (I/R). Results are presented as mean +/- S.E.M. * P<0.05; ** P<0.001, *** P<0.001 vs Sham; #P<0.05 vs untreated I/R. • Figure 3 is a combination of two graphs showing thrombin time (TT), which reflects anticoagulant activity, and plasma concentrations of Dabigatran (A) and S35792 (B) in rats after throracotomy with occlusion of left coronary artery followed by reperfusion (I/R). Vehicle (V) is 60% H2O/40% PEG 300 for dabigatran and saline for S35972. Tests were carried out on blood collected by cardiac puncture at sacrifice (i.e. for Dabigatran, 90 minutes after last oral administration). DTI plasma levels are quantified using LC-MS/MS. TT are expressed as mean +/- S.E.M with reference to the mean value of sham animals that underwent thoracotomy only. *** P<0.001 vs untreated I/R. • Figure 4 is a combination of three graphs showing left atrium (LA) area (A) and diameter (B) and left ventricle end-diastolic (LVED) diameter (C) after two months of treatment with S35972. Treatment of rats started just after thoracotomy without (Sham) or with occlusion of left coronary artery followed by reperfusion (I/R). LA area was measured by bidimensional echocardiography. LA and LVED diameters were measured in time-motion mode. Results are presented as mean +/- S.E.M. *P<0.05, **P<0.01 and *** P<0.001 vs Sham; ^#P<0.05 ^###P<0.001 vs untreated I/R. • Figure 5 is a graph showing the impact of S35972 administration during two months on the duration of an episode of AF in rats undergone thoracotomy without (Sham) or with occlusion of left coronary artery followed by reperfusion (I/R). AF duration is measured as the time between the end of the electric stimulation and the return to sinusoidal rhythm. Results are presented as mean +/- S.E.M, *P<0.05 vs Sham; ^##P<0.01 vs untreated I/R, • Figure 6 is a combination of graphs showing the impact of treatments with 25 mg/kg/d dabigatran for 4 weeks and 6 mg/kg/d S35972 for 8 weeks on atrial (A) and ventricular (B) expression of myosin heavy chain (MHC) isoforms. Rats undergone thoracotomy without (Sham) or with occlusion of left coronary artery followed by reperfusion (I/R). Expression of mRNA was measured with real-time qPCR. Results are presented as mean +/- S.E.M. *P<0.05, **P<0.01 vs Sham; #P<0.05 vs untreated I/R. • Figure 7 is a combination of graphs showing the impact of 2 months S35972 administration on the expression of the hypertrophic markers, brain and atrial natriuretic peptides (BNP and ANP) in atria (A) and ventricle (B). Rats undergone thoracotomy without (Sham) or with occlusion of left coronary artery followed by reperfusion (I/R). Expression of mRNA was measured with real-time qPCR. Results are presented as mean +/- S.E.M. *P<0.05, ***P<0.001 vs Sham; #P<0.05, ##P<0.01 vs untreated I/R. • Figure 8 is a combination of graphs showing the impact of 2 months S35972 administration on the expression of fibrotic markers, plasminogen activator inhibitor 1 (PAI-1, A) and heparin-binding epidermal growth factor (HB-EGF, B) in atria and ventricle. Rats undergone thoracotomy without (Sham) or with occlusion of left coronary artery followed by reperfusion (I/R). […]

HB-EGF = assay: as above; assay type: in vivo, Male OFA Sprague-dawley rats; details: 2 months administration
Source text: as §2

PAI-1 = assay: as above; assay type: in vivo, Male OFA Sprague-dawley rats; details: 2 months administration
Source text: as §2

ANP = assay: as above; assay type: in vivo, Male OFA Sprague-dawley rats; details: 6 mg/kg/day, 2 months
Source text: as §2

[2] = atrium, 6 mg/kg/day for 8 weeks post I/R
[3] = ventricle, 6 mg/kg/day post I/R

Substance: 4-oxo-3-(2-pyridin-2-ylethylamino)-4,6,7,8-tetrahydro-pyrrolo[1,2-a]pyrazine-6-carboxylic acid 2-ethylcarbamoyl methoxy-benzylamide [S35972]
- expression of α-MHC (mRNA) in left atrium (α-MHC; [2]): without impacting the expression of α-MHC
- expression of α-MHC (mRNA) in the ventricle (α-MHC; [3]): without significant impact on the expression of α-MHC
- synthesis of β-MHC (mRNA) in left atrium (β-MHC; [2]): prevents the synthesis of β-MHC
- synthesis of β-MHC (mRNA) in the ventricle (β-MHC; [3]): prevents the synthesis of β-MHC
- plasma concentration ([1]; 3 mg/kg/day): 24.1 ± 5.7 ng/mL
- plasma concentration ([1]; 6 mg/kg/day): 57.2 ± 24.4 ng/mL
- synthesis of BNP (mRNA) in the atrium (BNP; atrium): prevents the synthesis of BNP
- synthesis of BNP (mRNA) in the ventricle (BNP; ventricle): prevents the synthesis of BNP
- induction of HB-EGF mRNA in atria (HB-EGF; atria): prevents the induction of HB-EGF mRNA
- induction of HB-EGF mRNA in ventricles (HB-EGF; ventricles): prevents the induction of HB-EGF mRNA
- mRNA expression of PAI-1 in atria (PAI-1; atria): has an inhibitory effect
- mRNA expression of PAI-1 in ventricles (PAI-1; ventricles): inhibitory effect in atria only
- expression of ANP (mRNA) in the atrium (ANP; atrium): does not impact its expression
- synthesis of ANP (mRNA) in the ventricle (ANP; ventricle): significantly reduces its synthesis
